What was measured:
[1] = Stability of ratio of the mixture of desloratadine polymorphic forms on storage (XRPD); assay type: physicochemical
Source text: Copper radiation of 1.5418 Å was used.
In all cases samples were packed in polyethylene and store above conditions.

[2] = Stability under grinding by hand in mortar and pestle (XRD); conditions: grinding by hand in mortar and pestle for one minute
[3] = Solubility of desloratadine; assay type: physicochemical
[4] = 25° C., 60% RH, 1 month (4 weeks)
[5] = 25° C., 60% RH, 2 months (8 weeks)
[6] = 25° C., 60% RH, 3 months (12 weeks)
[7] = 40° C., 75% RH, 1 month (4 weeks)
[8] = 40° C., 75% RH, 2 months (8 weeks)
[9] = 25° C., 60% RH, 6 months (24 weeks)
[10] = 40° C., 75% RH, 3 months (12 weeks)
[11] = 40° C., 75% RH, 6 months (24 weeks)

SMILES: Clc1ccc2c(c1)CCc1cccnc1C2=C1CCNCC1 [Example 2 of Stability Tests, desloratadine]
- Form 1 (%) ([1]; 25° C., 60% RH, 0 week): 62%
- Form 2 (%) ([1]; 25° C., 60% RH, 0 week): 38%
- Form 1 (%) [1, 4]: 66%
- Form 2 (%) [1, 4]: 34%
- Form 1 (%) ([1]; 25° C., 60% RH, 1 week): 65%
- Form 2 (%) ([1]; 25° C., 60% RH, 1 week): 35%
- Form 1 (%) [1, 5]: 67%
- Form 2 (%) [1, 5]: 33%
- Form 1 (%) ([1]; 25° C., 60% RH, 2 weeks): 61%
- Form 2 (%) ([1]; 25° C., 60% RH, 2 weeks): 39%
- Form 1 (%) [1, 6]: 66%
- Form 2 (%) [1, 6]: 34%
- Form 1 (%) ([1]; 40° C., 75% RH, 0 week): 62%
- Form 2 (%) ([1]; 40° C., 75% RH, 0 week): 38%
- Form 1 (%) [1, 7]: 65%
- Form 2 (%) [1, 7]: 35%
- Form 1 (%) ([1]; 40° C., 75% RH, 1 week): 63%
- Form 2 (%) ([1]; 40° C., 75% RH, 1 week): 37%
- Form 1 (%) [1, 8]: 65%
- Form 2 (%) [1, 8]: 35%
- Form 1 (%) ([1]; 40° C., 75% RH, 2 weeks): 64%
- Form 2 (%) ([1]; 40° C., 75% RH, 2 weeks): 36%

SMILES: Clc1ccc2c(c1)CCc1cccnc1C2=C1CCNCC1 [50:50, desloratadine]
- change in the XRD pattern after grinding [2]: do not show any substantial change

SMILES: Clc1ccc2c(c1)CCc1cccnc1C2=C1CCNCC1 [75:25, desloratadine]
- change in the XRD pattern after grinding [2]: do not show any substantial change

SMILES: Clc1ccc2c(c1)CCc1cccnc1C2=C1CCNCC1 [desloratadine, 8-chloro-6,11-dihydro-11-(4-piperidylidene)-5H-benzo[5,6] cyclohepta[1,2-b]pyridine]
- solubility [3]: very low

SMILES: Clc1ccc2c(c1)CCc1cccnc1C2=C1CCNCC1 [Form I, desloratadine, reference compound]
- change in the XRD pattern after grinding [2]: stable

SMILES: Clc1ccc2c(c1)CCc1cccnc1C2=C1CCNCC1 [Example 4 of Stability Tests, desloratadine]
- Form 1 (%) ([1]; 25° C., 60% RH, 0 week): 76%
- Form 2 (%) ([1]; 25° C., 60% RH, 0 week): 24%
- Form 1 (%) [1, 4]: 82%
- Form 2 (%) [1, 4]: 18%
- Form 1 (%) ([1]; 25° C., 60% RH, 1 week): 87%
- Form 2 (%) ([1]; 25° C., 60% RH, 1 week): 13%
- Form 1 (%) [1, 5]: 86%
- Form 2 (%) [1, 5]: 14%
- Form 1 (%) ([1]; 25° C., 60% RH, 2 weeks): 80%
- Form 2 (%) ([1]; 25° C., 60% RH, 2 weeks): 20%
- Form 1 (%) [1, 6]: 81%
- Form 2 (%) [1, 6]: 19%
- Form 1 (%) [1, 9]: 84%
- Form 2 (%) [1, 9]: 16%
- Form 1 (%) ([1]; 40° C., 75% RH, 0 week): 76%
- Form 2 (%) ([1]; 40° C., 75% RH, 0 week): 24%
- Form 1 (%) [1, 7]: 88%
- Form 2 (%) [1, 7]: 12%
- Form 1 (%) ([1]; 40° C., 75% RH, 1 week): 76%
- Form 2 (%) ([1]; 40° C., 75% RH, 1 week): 24%
- Form 1 (%) [1, 8]: 85%
- Form 2 (%) [1, 8]: 15%
- Form 1 (%) ([1]; 40° C., 75% RH, 2 weeks): 82%
- Form 2 (%) ([1]; 40° C., 75% RH, 2 weeks): 18%
- Form 1 (%) [1, 10]: 82%
- Form 2 (%) [1, 10]: 18%
- Form 1 (%) [1, 11]: 82%
- Form 2 (%) [1, 11]: 18%

SMILES: Clc1ccc2c(c1)CCc1cccnc1C2=C1CCNCC1 [Form II, desloratadine, reference compound]
- change in the XRD pattern after grinding [2]: stable

SMILES: Clc1ccc2c(c1)CCc1cccnc1C2=C1CCNCC1 [25:75, desloratadine]
- change in the XRD pattern after grinding [2]: do not show any substantial change

SMILES: Clc1ccc2c(c1)CCc1cccnc1C2=C1CCNCC1 [84:16, desloratadine]
- change in the XRD pattern after grinding [2]: do not show any substantial change

SMILES: Clc1ccc2c(c1)CCc1cccnc1C2=C1CCNCC1 [Example 1 of Stability Tests, desloratadine]
- Form 1 (%) ([1]; 25° C., 60% RH, 0 week): 57%
- Form 2 (%) ([1]; 25° C., 60% RH, 0 week): 43%
- Form 1 (%) [1, 4]: 55%
- Form 2 (%) [1, 4]: 45%
- Form 1 (%) ([1]; 25° C., 60% RH, 1 week): 59%
- Form 2 (%) ([1]; 25° C., 60% RH, 1 week): 41%
- Form 1 (%) [1, 5]: 63%
- Form 2 (%) [1, 5]: 37%
- Form 1 (%) ([1]; 25° C., 60% RH, 2 weeks): 53%
- Form 2 (%) ([1]; 25° C., 60% RH, 2 weeks): 47%
- Form 1 (%) [1, 6]: 52%
- Form 2 (%) [1, 6]: 48%
- Form 1 (%) ([1]; 40° C., 75% RH, 0 week): 57%
- Form 2 (%) ([1]; 40° C., 75% RH, 0 week): 43%
- Form 1 (%) [1, 7]: 50%
- Form 2 (%) [1, 7]: 50%
- Form 1 (%) ([1]; 40° C., 75% RH, 1 week): 46%
- Form 2 (%) ([1]; 40° C., 75% RH, 1 week): 54%
- Form 1 (%) [1, 8]: 39%
- Form 2 (%) [1, 8]: 61%
- Form 1 (%) ([1]; 40° C., 75% RH, 2 weeks): 43%
- Form 2 (%) ([1]; 40° C., 75% RH, 2 weeks): 57%

SMILES: Clc1ccc2c(c1)CCc1cccnc1C2=C1CCNCC1 [Example 3 of Stability Tests, desloratadine]
- Form 1 (%) ([1]; 25° C., 60% RH, 0 week): 74%
- Form 2 (%) ([1]; 25° C., 60% RH, 0 week): 26%
- Form 1 (%) [1, 4]: 79%
- Form 2 (%) [1, 4]: 21%
- Form 1 (%) ([1]; 25° C., 60% RH, 1 week): 79%
- Form 2 (%) ([1]; 25° C., 60% RH, 1 week): 21%
- Form 1 (%) [1, 5]: 75%
- Form 2 (%) [1, 5]: 25%
- Form 1 (%) ([1]; 25° C., 60% RH, 2 weeks): 74%
- Form 2 (%) ([1]; 25° C., 60% RH, 2 weeks): 26%
- Form 1 (%) [1, 6]: 74%
- Form 2 (%) [1, 6]: 26%
- Form 1 (%) [1, 9]: 77%
- Form 2 (%) [1, 9]: 23%
- Form 1 (%) ([1]; 40° C., 75% RH, 0 week): 74%
- Form 2 (%) ([1]; 40° C., 75% RH, 0 week): 26%
- Form 1 (%) [1, 7]: 78%
- Form 2 (%) [1, 7]: 22%
- Form 1 (%) ([1]; 40° C., 75% RH, 1 week): 77%
- Form 2 (%) ([1]; 40° C., 75% RH, 1 week): 23%
- Form 1 (%) [1, 8]: 78%
- Form 2 (%) [1, 8]: 22%
- Form 1 (%) ([1]; 40° C., 75% RH, 2 weeks): 81%
- Form 2 (%) ([1]; 40° C., 75% RH, 2 weeks): 19%
- Form 1 (%) [1, 10]: 75%
- Form 2 (%) [1, 10]: 25%
- Form 1 (%) [1, 11]: 75%
- Form 2 (%) [1, 11]: 25%

From patent US20060223841A1 (priority 2003, published 2006)
